Measurements published in US8993543B2, “Diphenyl sulfide derivative and pharmaceutical product which contains same as active ingredient” (Kyorin Pharmaceutical Co., Ltd., priority 2010, dated 2015).

Legend:
[1] = molecular target: T1, S1P1 receptor (Homo sapiens, UniProt P21453); experiment: Antagonistic action on the S1P1 receptor by the method of Experiment Example 1 (Kd); assay type: cell-based; design: expressed in transfected cells
[2] = molecular target: T2, Human S1P3 receptor (Homo sapiens, UniProt Q99500); experiment: Suppression of S1P-induced cellular calcium mobilization in human S1P3 receptor-expression CHO cells (Schild plot, Kd); assay type: cell-based; conditions: Fluo3 calcium mobilization by S1P, Schild plot analysis, read-out: S1P3 dissociation constant Kd
T2 construct: expressed in transfected cells; host or cells: CHO cells (Geneticin selection)
Method: Suppression Effect of Test Compound Against Cellular Calcium Mobilization of Human S1P3 Receptor-Expression Cell by S1P (Sphingosine 1-Phosphoric Acid)
Human S1P3 receptor-expression CHO cells were subcultured in a Ham's F-12 culture medium containing 10% fetal bovine serum, and 300 μg/mL of Geneticin The human S1P3 receptor-expression CHO cells were subjected to 0.25% trypsinization, then recovered from the dish, and floated in a Ham's F-12 culture medium containing 10% fetal bovine serum, and 300 μg/mL of Geneticin. Then, the human S1P3 receptor-expression CHO cells were seeded into a 96-well black clear bottom plate (BD Falcon Biocoat) at 2.5×10^4/100 μL/well. The human S1P3 receptor-expression CHO cells were then cultivated for […] at 37° C. under 5% CO2 environment. The next day, the wells were washed with a Ham's F-12 culture medium containing 100 μL of 0.1% fatty acid-free bovine serum albumin (BSA). This washing treatment was carried out 3 times. The culture medium was exchanged with a Ham's F-12 culture medium containing 0.1% BSA, and then starved of serum for 6 hours in a CO2 incubator set at 37° C.
The culture medium was thrown away after the 6 hours. Then, 50 μL/well of a Fluo3 loading buffer was added, and the cultures were cultivated for further 1 hour. The Fluo3 loading buffer was prepared as follows. First, equal amounts of Fluo3-AM (Dojindo) and pluronic F-127 (20% DMSO solution, invitrogen) weremixed. Then, the mixture of Fluo3-AM andpluronic F-127 was added into a Hanks-HEPES buffer (Hanks balanced salt solution containing 20 mM HEPES (pH 7.4), 0.1% BSA (fatty acid-free), and 2.5 mM probenecid) to form a Fluo3 loading buffer having a final Fluo3-AM concentration of 4 μM.
After incubating for 1 hour, the wells were washed 3 times with 100 μL of the Hanks-HEPES buffer. 100 μL of the same buffer in which a test compound (0.125 nM, 1.25 nM, 12.5 nM, 125 nM, 1.25 μM) or DMSO had been dissolved were added to the each well, and then incubated for 30 minutes at 37° C. in a microplate spectrophotofluorometer (FLEX Station (Molecular Device Co., Ltd.)). Then, 25 μL of S1P prepared at 5 times the concentration of the final concentration based on serial dilution (final concentration of 0.1 nM, 1 nM, 10 nM, 100 nM, and 1 μM) was added, and the fluorescence based on the Fluo3 due to calcium mobilization was detected and measured at an excitation wavelength of 485 nm and a detection wavelength of 525 nm using an same apparatus. Based on the measurement data, the increase in fluorescence was calculated by subtracting the minimum fluorescence intensity from the maximum fluorescence intensity. The calculated increase in fluorescence was used to perform a curve approximation of the relationship between the S1P concentration and the increase in fluorescence using PRISM 4 software (GraphPad). Based on the results, the EC50 value of the compound-untreated and the EC50 value of the compound-treated at each concentration was calculated. Based on these values, Schild plot analysis was carried out in order to determine the dissociation constant Kd. In Table 1, 1 nmol/L>Kd value≧0.1 nmol/L is indicated as “+”, 0.1 nmol/L>Kd value≧0.01 nmol/L is indicated as “++”, and 0.01 nmol/L>Kd value is indicated as “+++”.

[3] = molecular target: T1, S1P1 receptor; experiment: Intracellular calcium mobilization derivative test (agonist action) in human S1P1 receptor-expression CHO cells; assay type: cell-based; design: expressed in transfected cells; host or cells: CHO cells (Geneticin selection); conditions: agonist mode, up to 10 μM
Method: Intracellular Calcium Mobilization Derivative Test of Test Compound Against Human S1P1 Receptor-Expression Cell
Human S1P1 receptor-expression CHO cells were subcultured in a Ham's F-12 culture medium containing 10% fetal bovine serum, and 300 μg/mL of Geneticin. The human S1P1 receptor-expression CHO cells were subjected to 0.25% trypsinization, then recovered from the dish, and floated in a Ham's F-12 culture medium containing 10% fetal bovine serum, and 300 μg/mL of Geneticin. Then, the human S1P1 receptor-expression CHO cells were seeded into a 96-well black clear bottom plate (BD Falcon Biocoat) at 2.5×10^4/100 μL/well. […]
After incubating for 1 hour, the wells were washed 3 times with 100 μL of the Hanks-HEPES buffer. […] Then, 25 μL of the same buffer dissolved with DMSO, or S1P prepared at 5 times the concentration of the final concentration based on serial dilution or the test compound (final concentration of 0.1 nM, 1 nM, 10 nM, 100 nM, 1 μM, and 10 μM) was added, and the fluorescence based on the Fluo3 due to calcium mobilization was detected and measured at an excitation wavelength of 485 nm and a detection wavelength of 525 nm using the same apparatus. Based on the measurement data, the increase in fluorescence was calculated by subtracting the minimum fluorescence intensity from the maximum fluorescence intensity. […]

[4] = test system: Cecal ligation and puncture (CLP) sepsis; experiment: Cecal ligation and puncture sepsis model, survival; assay type: in vivo, Wistar rats; conditions: CLP rats
Method: Cecal Ligation and Puncture Sepsis Model
This model is widely used as a model for polymicrobial abdominal sepsis caused by leakage of intestinal bacteria. The experiment was carried out with reference to the method described in Non-Patent Literature 9 (D. Rittirsch et al., Nature Protocols, 4, 31 (2009)).
Preparation of Cecalligation and Puncture (CLP) Sepsis Mice
Wistar rats (Charles River Laboratories, Japan Inc., male 8 W) were used. The abdominal portion of the rats was cut open under isoflurane anesthesia, and the appendix was exteriorized. The appendix was ligated with sterilized silk thread, and 10 holes were opened in the tip portion of the appendix using an 18 G syringe needle. After the treatment, the appendix was returned to the body, and the wound was sutured. Further, physiological saline was subcutaneously administered at a dose of 30 mL/kg. The rats were then returned to their cages, and observed for 7 days to determine the survival rate.
Test Compound Administration Method
The test compound was continuously administered via a cannula stuck in the femoral vein at a dose of 0.1 mg/kg/hr. Administration of the test compound was started 1 hour after the CLP procedure was finished.

T1 sequence (P21453 whole entry): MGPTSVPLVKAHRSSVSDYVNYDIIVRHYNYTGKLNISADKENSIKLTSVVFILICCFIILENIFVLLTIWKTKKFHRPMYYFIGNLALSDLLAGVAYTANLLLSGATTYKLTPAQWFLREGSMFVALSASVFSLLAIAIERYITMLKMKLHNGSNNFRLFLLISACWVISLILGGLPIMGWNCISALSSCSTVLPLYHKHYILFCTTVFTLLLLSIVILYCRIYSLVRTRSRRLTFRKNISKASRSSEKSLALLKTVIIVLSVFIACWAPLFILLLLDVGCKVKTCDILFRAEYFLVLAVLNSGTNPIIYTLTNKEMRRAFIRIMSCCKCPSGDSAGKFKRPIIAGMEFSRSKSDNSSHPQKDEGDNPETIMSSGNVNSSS
T2 sequence (Q99500 whole entry): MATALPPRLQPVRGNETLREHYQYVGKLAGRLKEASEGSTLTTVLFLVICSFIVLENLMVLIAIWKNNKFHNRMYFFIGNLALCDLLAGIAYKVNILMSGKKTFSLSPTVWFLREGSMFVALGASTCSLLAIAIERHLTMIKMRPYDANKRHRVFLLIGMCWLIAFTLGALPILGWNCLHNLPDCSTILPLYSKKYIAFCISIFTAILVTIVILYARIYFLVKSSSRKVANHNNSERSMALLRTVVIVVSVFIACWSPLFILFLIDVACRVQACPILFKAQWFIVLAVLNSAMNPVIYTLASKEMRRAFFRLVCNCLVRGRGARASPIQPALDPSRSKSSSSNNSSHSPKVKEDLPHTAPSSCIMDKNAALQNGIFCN

Kd [2] [nM]	Compound	Kd [1] [nM]	EC50 [3] [µM]	survival lengthening action, Log-rank test p ([4]; 0.1 mg/kg/hr continuous via femoral vein from 1 hour after CLP, vs medium administration group)	survival rate, test subjects alive after 3 days ([4]; 0.1 mg/kg/hr continuous via femoral vein, after 3 days) [%]	survival rate, test subjects alive after 7 days ([4]; 0.1 mg/kg/hr continuous via femoral vein, after 7 days) [%]
< 0.01	C=CC[C@](N)(CCc1ccc(Sc2cc(OCC)ccc2O)cc1Cl)COP(=O)(O)O [Example 1, (R)-2-allyl-2-amino-4-{2-chloro-4-(5-ethoxy-2-hydroxyphenylthio)phenyl}butylphosphoric acid monoester]	2.66	> 10			
0.1 to 1	N[C@@](CCCO)(CCc1ccc(Sc2cc(C3CC3)ccc2O)cc1Cl)COP(=O)(O)O [compound 19]					
0.1 to 1	C=CC[C@](N)(CCc1ccc(Sc2cc(C#N)ccc2O)cc1Cl)COP(=O)(O)O [compound 28, (R)-2-allyl-2-amino-4-{2-chloro-4-(5-cyano-2-hydroxyphenylthio)phenyl}butylphosphoric acid monoester]					
0.1 to 1	CCC[C@](N)(CCc1ccc(Sc2cc(C#N)ccc2O)cc1Cl)COP(=O)(O)O [compound 35, (S)-2-amino-4-[2-chloro-4-(5-cyano-2-hydroxyphenylthio)Phenyl]-2-propylbutylphosphoric acid monoester]					
0.1 to 1	CCC[C@](N)(CCc1ccc(Sc2cc(C(C)=O)ccc2O)cc1Cl)COP(=O)(O)O [compound 36, (S)-4-[4-(5-acetyl-2-hydroxyphenylthio)-2-chlorophenyl]-2-amin o-2-propylbutylphosphoric acid monoester]					

Compound	Kd [2] [nM]	Kd [1] [nM]	EC50 [3] [µM]	survival lengthening action, Log-rank test p ([4]; 0.1 mg/kg/hr continuous via femoral vein from 1 hour after CLP, vs medium administration group)	survival rate, test subjects alive after 3 days ([4]; 0.1 mg/kg/hr continuous via femoral vein, after 3 days) [%]	survival rate, test subjects alive after 7 days ([4]; 0.1 mg/kg/hr continuous via femoral vein, after 7 days) [%]
CCC[C@](N)(CCc1ccc(Sc2cc(OCC)ccc2O)cc1Cl)COP(=O)(O)O [Example 2, (S)-2-amino-4-{2-chloro-4-(5-ethoxy-2-hydroxyphenylthio)phenyl}-2-propylbutylphosphoric acid monoester]	< 0.01	1.6	> 10	< 0.01	25	12.5
